Data as given in patent US7445891B2, “Nucleic acid triggered catalytic drug and probe release” (priority 2001, dated 2008).

What was measured:
imidazole hairpin 3a = experiment: Fluorescein release from fluorescein dipivalate ODNs by imidazole hairpin; format: biochemical; conditions: 10 mM ODN, 5 mM hairpin 3a, 0.1 M phosphate pH 7.0, 20° C.; relative to 7a
Text: FIG. 11. […] For comparison, the release of fluorescein from the fluorescein tetramer 7aby imidazole at 0.1 M imidazole alone is also shown.
Because of the strong fluorescence and widespread use of fluorescein as a fluorescent probe, the rate of fluorescein release by imidazole catalyzed hydrolysis of diacetyl fluorescein was investigated. Diacetylated fluoresceins are non-fluorescent, but upon hydrolysis of the acyl groups become highly fluorescent. Attempts to attach the N-hydroxysuccinimide derivative of diacetylcarboxyfluorescein via amide bond formation with the 3′-amino linked oligodeoxynucleotide 5 (FIG. 4) failed due to the high pH required for the reaction which led to the premature hydrolysis of the acetate groups. Attempts to conjugate 5-chloromethyl fluorescein diacetate with a 3′-phosphorothioate labeled ODN also failed at pH 7. […] The TMs of 7a-cwere estimated from thermodynamic parameters to be -20, 19, and 41° C. under the conditions of the experiment and have equilibrium dissociation constants of 3.4 mM, 8.1 mM, and 14 nM.

E. coil 5S rRNA = experiment: Hydroxycoumarin release from PNA constructs on 5S rRNA trigger; format: biochemical, E. coli; conditions: unoptimized test
Text: FIG. 16. A series of PNA constructs was synthesized to target one of the hairpin loops of commercially available E. coil 5S rRNA (SEQ ID NO:11) as the nucleic acid trigger. This rRNA has been thoroughly characterized by enzymatic and chemical probes, and is therefore a suitable initial model for studying and optimizing various catalytic drug releasing motifs in folded […].
FIG. 19. […] In contrast, there was no difference in the rate of release of hydroxycoumarin from the 6-mer conjugate in the presence or absence of the histidine, or the catalytic component. (not shown).

hairpin enzyme 3a = experiment: Two component hairpin system: p-nitrophenolate / 7-hydroxycoumarin release from 8-mer prodrugs; format: biochemical; conditions: for Enhancement: (kcat/KM)/kIm
Procedure: Initial velocities of the reaction, obtained for each substrate concentration, were fitted to the Michaelis-Menten equation by a non-linear least squares method using KaleidaGraph software. The inhibition constant KI was determined in the presence of 25 mM 7d ([…]) in 10 mM sodium phosphate buffer pH 7.0 containing 1.0 M NaCl by the plotting 1/v vs. 1/[S] and calculating KI from the slope of the line according following equation:
(§1) [formula] where v is the velocity of the reaction, Vmax is the maximum velocity, KM is the substrate concentration at half maximal reaction rate, [I] is the inhibitor concentration, and [S] is the substrate concentration. Kinetics of p-nitrophenol and 7-hydroxycoumarin Release by Imidazole Alone

[1] = tested on: 15-mer catalytic component 3b and 23-mer template 4; experiment: Three component system: release from 8-mer prodrug with imidazole 15-mer and triggering 23-mer; format: biochemical
Procedure: For typical assays, pNP-8-mer 1 (SEQ ID NO:1) and Im-15-mer 2 were incubated in 10 mM sodium phosphate, pH 7.0, which contained 0.1 M or 1.0 M NaCl in an ultra-micro ([…]) UV cell (Varian). The reaction temperature was maintained at 20° C., and the production of p-nitrophenolate was monitored by UV absorbance at 400 nm (e400=6.26′10^3). Initial velocities of the reaction, obtained for each substrate concentration, were fitted to the Michaelis-Menten equation by a non-linear least squares method with KaleidaGraph software. The inhibition constant KI was determined in the presence of 20 mM d([…]) in 10 mM sodium phosphate buffer pH 7.0 containing 1.0 M NaCl by the plotting 1/v vs. 1/[S] and calculating KI from the slope of the line according following equation:
[formula] where v is the velocity of the reaction, Vmax is the maximum velocity, KM is the substrate concentration at half maximal reaction rate, [I] is the inhibitor concentration, and [S] is the substrate concentration. For comparison purposes, the reaction rate constant kIm for the imidazole catalyzed hydrolysis of N-maleoyl-D-valine p-nitrophenyl ester 8 was determined in imidazole buffer at pH 7.0, 1.0 M NaCl at 20° C. as previously described. […]
as §1

[2] = Imidazole catalyzed hydrolysis of esters (imidazole alone); format: physicochemical; conditions: 20° C.
Procedure: For comparison purposes, the rate constant kIm for the imidazole catalyzed hydrolysis of the various esters were determined in imidazole buffer at pH 7.0, 0.5 M NaCl at 20° C. as previously described. The imidazole buffers were prepared in 0.5 M NaCl, and adjusted to pH 7 by addition of 1 M HCl. […] The pseudo first-order rate constant for each concentration of imidazole was obtained by linear least squares fitting of In(A¥-A) or In(F¥-F) vs. time. The rate constants were then plotted against total imidazole concentration to get ko, the first order rate constant for the uncatalyzed hydrolysis reaction, and kIm, the second-order rate constant for catalysis by imidazole buffer.

[3] = Hydrolysis of esters in human serum
Procedure: In a typical run, 3 mL of coumarin ester solution (7 mM in acetonitrile) was added to 400 mL of Human serum, pH 8.3 (Innovative Research Inc.) in cuvette. The cuvette was capped, inverted several times for thorough mixing, placed in a cell block and recording was begun.

[4] = 1 M NaCl; cited from earlier work

7a: 4-mer ODN derivatized with bis-pivaloyl fluorescein (SEQ ID NO:7) (GTCA; DNA, backbone not given here; further chemistry not fully specified)
relative initial rates of fluorescein release (imidazole hairpin 3a): 1

7c: 8-mer ODN derivatized with bis-pivaloyl fluorescein (SEQ ID NO:9) (TCCTGTCA; DNA, backbone not given here; further chemistry not fully specified)
relative initial rates of fluorescein release (imidazole hairpin 3a): 493

8-mer PNA construct: hydroxycoumarin-bearing 8-mer PNA (SEQ ID NO:15) targeting E. coli 5S rRNA hairpin loop (CTGGGGTA; all peptide nucleic acid (PNA); hydroxycoumarin attached, position not given here)
rate of hydroxycoumarin release, all three components vs absence of the entire catalytic PNA (E. coil 5S rRNA): 4 fold
rate of hydroxycoumarin release, all three components vs all three minus the histidine (E. coil 5S rRNA): 2 fold

15a (SEQ ID NO:10) (X=C): mismatched b-alanine p-nitrophenyl ester 8-mer prodrug, G to C transversion (DNA TCCTNTCA; b-alanine p-nitrophenyl ester prodrug, chemistry not fully specified)
difference in initial rates of p-nitrophenolate release, matched 15a (X=G) vs single CC mismatch (hairpin enzyme 3a; 1 M NaCl): 11 fold
increase in Kd of mismatch substrate needed to account for rate difference (hairpin enzyme 3a; rates proportional to (Kd+[S])^−1): 15 fold

15a (X = G): matched b-alanine p-nitrophenyl ester 8-mer ODN prodrug (SEQ ID NO:10) (TCCTNTCA; beta-alanine p-nitrophenyl ester prodrug, chemistry not fully specified)
time in which four turnovers are complete (hairpin enzyme 3a; 20 mM prodrug, 5 mM hairpin 3a, 1 M NaCl, pH 7, 20° C.): about 4 h
kcat (hairpin enzyme 3a; 1.0 M NaCl, 10 mM phosphate buffer pH 7.0, 20° C., listed as 15a): 0.0029 s⁻¹
Enhancement (hairpin enzyme 3a; 0.1 M NaCl): 281
Enhancement (hairpin enzyme 3a; 1.0 M NaCl): 446
koff needed to account for observed KM (hairpin enzyme 3a; assuming on rate 10^6 M^−1s^−1): 50 s⁻¹
rate enhancement of ester hydrolysis relative to imidazole alone (hairpin enzyme 3a; kcat/KM compared with kIm): 446 fold

16a: D-valine p-nitrophenyl ester linked to the 3'-end of 8-mer ODN d(TCCTGTCA) (DNA, backbone not given here; further chemistry not fully specified)
drop in kcat relative to b-alanine ester 15a (hairpin enzyme 3a; 1.0 M NaCl): 8.3 fold
Enhancement (hairpin enzyme 3a; 1.0 M NaCl): 429
p-nitrophenol formed during the course of the reaction ([1]; 5 mM catalytic ODN and 5 mM triggering ODN): about 15 mM
release more efficient with fully matched than mismatched template ([1]; 0.1 M NaCl, 20° C.): 7.5 fold
difference in rate, matched vs mismatched template ([1]; 1 M NaCl): 1.4 fold
Vmax ([1]; 1 M NaCl, pH 7, 20° C.): 0.09 mM/min
kcat ([1]; 1 M NaCl, pH 7, 20° C.): 0.0003 s⁻¹
initial rate of p-nitrophenol release ([1]; 15-mer lacking an appended imidazole group, 1 M NaCl, pH 7, 20° C.): 0.0008 mM/min
rate acceleration over hydrolysis catalyzed by free imidazole ([1]; (kcat/KM)/kIm): 976 fold
Enhancement ([1]; (kcat/KM)/kIm, 1.0 M NaCl): 974
initial rate of p-nitrophenol release ([1]; absence of the 23-mer or Im-15-mer, 1 M NaCl, pH 7, 20° C.): 0.002 mM/min
initial rate of p-nitrophenol release ([1]; all three components, 1 M NaCl, pH 7, 20° C.): 0.057 mM/min
initial rate of release of p-nitrophenol ([1]; fully matched 23-mer, 0.1 M NaCl, 20° C.): 0.028 mM/min
initial rate of release of p-nitrophenol ([1]; mismatched 23-mer (T at position 20 replaced with C), 0.1 M NaCl, 20° C.): 0.0037 mM/min

CC(C)[C@H](C(=O)Oc1ccc([N+](=O)[O-])cc1)N1C(=O)C=CC1=O [11a, N-maleoyl-D-valine p-nitrophenyl ester]
kIm ([2]; imidazole buffer pH 7.0, 1.0 M NaCl): 0.014 M⁻¹ s⁻¹

CC(=O)Oc1ccc([N+](=O)[O-])cc1 [p-nitrophenylacetate, reference compound]
klm ([2]; imidazole catalyzed rate constant, pH 7, 0.5 M NaCl): 0.13 M⁻¹ s⁻¹

N-maleoyl-b-alanine-coumarin ester [9c]
stability to hydrolysis by human serum, compared [3]: more stable than the CBZ-glycine ester, but much less stable than the maleoyl-D-valine esters

d(GGAGCTTGCTCC): hairpin ODN of the literature (SEQ ID NO:18) (DNA, backbone not given here; hairpin)
TM reported [4]: 71 °C
